Data: patent US9073895B2 (Boehringer Ingelheim International GmbH, priority 2010, dated 2015)

Key:
[1] = biological target: T1, recombinant human FLAP protein (Homo sapiens, UniProt P20292); experiment: FLAP binding assay (SPA, displacement of [125I]L-691,831); details: membranes of sf9 cells expressing human FLAP, [125I]L-691,831 probe; read-out: hFLAP binding IC50
T1 construct: made in house; host or cells: Sf9 insect cells (membrane fraction, 100,000 x g pellet)
T1 sequence (P20292 1-161): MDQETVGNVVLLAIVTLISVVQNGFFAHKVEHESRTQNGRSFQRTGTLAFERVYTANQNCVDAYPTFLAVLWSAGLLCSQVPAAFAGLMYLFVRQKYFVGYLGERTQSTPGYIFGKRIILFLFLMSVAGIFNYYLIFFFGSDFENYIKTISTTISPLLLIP
Summary of the method: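 Membranes from sf9 cells expressing human FLAP (5 μg/well) were bound to WGA SPA beads (200 μg/well). Nonspecific binding was defined with 10 μM unlabelled L-691,831.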

[2] = test system: synthesis of LTB4 in human whole blood; experiment: Human whole blood LTB4 production inhibition assay; format: cell-based; details: heparinized human whole blood, calcimycin 20 μM, plasma LTB4; read-out: HuWB IC50
Method: Compounds are additionally tested in a human whole blood assay to determine their ability to inhibit the synthesis of LTB4 in a cellular system. Compounds are combined with heparinized human whole blood and incubated for 15 minutes at 37° C. Calcimycin (20 μM final, prepared in phosphate-buffered saline, pH 7.4) is then added and the mixture is incubated for another 30 minutes at 37° C. The samples are centrifuged for 5 min at low speed (1500×g) and the plasma layer is removed. Plasma LTB4 concentrations are then measured using an antibody-based homogenous time-resolved fluorescence method (CisBio, Bedford, Mass.).

IC50 [1]	IC50 [2]	Compound
65 nM	3200 nM	CC(C)(C)c1cc(NC(=O)C2(c3ccc(-c4cnc(N)nc4)cc3)CCOCC2)ccn1 [Example 47, 4-[4-(2-aminopyrimidin-5-yl)phenyl]-N-(2-tert-butylpyridin-4-yl)tetrahydro-2H-pyran-4-carboxamide]
84 nM	1630 nM	Nc1ncc(-c2ccc(C3(C(=O)Nc4ccc(C(F)(F)F)nc4)CCOCC3)cc2)cn1 [Example 48, 4-[4-(2-aminopyrimidin-5-yl)phenyl]-N-[6-(trifluoromethyl)pyridin-3-yl]tetrahydro-2H-pyran-4-carboxamide]
27 nM	534 nM	Nc1ncc(-c2ccc(C3(C(=O)Nc4ccc(OCc5ccccc5)c(Cl)c4)CCOCC3)cc2)cn1 [Example 49, 4-[4-(2-aminopyrimidin-5-yl)phenyl]-N-[4-(benzyloxy)-3-chlorophenyl]tetrahydro-2H-pyran-4-carboxamide]
18 nM	1690 nM	Nc1ncc(-c2ccc(C3(C(=O)Nc4ccc5cnccc5c4)CCOCC3)cc2)cn1 [Example 51, 4-[4-(2-aminopyrimidin-5-yl)phenyl]-N-(isoquinolin-6-yl)tetrahydro-2H-pyran-4-carboxamide]
63.5 nM	1810 nM	Cc1nc(NC(=O)C2(c3ccc(-c4cnc(N)nc4)cc3)CCOCC2)ccc1C#N [Example 52, 4-[4-(2-aminopyrimidin-5-yl)phenyl]-N-(5-cyano-6-methylpyridin-2-yl)tetrahydro-2H-pyran-4-carboxamide]
44.5 nM	1120 nM	Nc1ncc(-c2ccc(C3(C(=O)Nc4ccc(Cc5ccccc5)cc4)CCOCC3)cc2)cn1 [Example 54, 4-[4-(2-aminopyrimidin-5-yl)phenyl]-N-(4-benzylphenyl)tetrahydro-2H-pyran-4-carboxamide]
29 nM	> 3000 nM	Nc1ncc(-c2ccc(C3(C(=O)Nc4nc5ccccc5s4)CCOCC3)cc2)cn1 [Example 55, 4-[4-(2-aminopyrimidin-5-yl)phenyl]-N-(1,3-benzothiazol-2-yl)tetrahydro-2H-pyran-4-carboxamide]
170 nM	> 3000 nM	Nc1ncc(-c2ccc(C3(C(=O)Nc4cc(-c5ccncc5)no4)CCOCC3)cc2)cn1 [Example 58, 4-[4-(2-aminopyrimidin-5-yl)phenyl]-N-[3-(pyridin-4-yl)-1,2-oxazol-5-yl]tetrahydro-2H-pyran-4-carboxamide]
12.7 nM	> 3000 nM	Nc1ncc(-c2ccc(C3(C(=O)Nc4nc(-c5ccccn5)cs4)CCOCC3)cc2)cn1 [Example 59, 4-[4-(2-aminopyrimidin-5-yl)phenyl]-N-[4-(pyridin-2-yl)-1,3-thiazol-2-yl]tetrahydro-2H-pyran-4-carboxamide]
3.5 nM	310 nM	Nc1ncc(-c2ccc(C3(C(=O)Nc4nc(-c5ccncc5)cs4)CCOCC3)cc2)cn1 [Example 60, 4-[4-(2-aminopyrimidin-5-yl)phenyl]-N-[4-(pyridin-4-yl)-1,3-thiazol-2-yl]tetrahydro-2H-pyran-4-carboxamide]
94 nM	> 3000 nM	Nc1ncc(-c2ccc(C3(C(=O)Nc4cccc(OCc5ccccc5)c4)CCOCC3)cc2)cn1 [Example 61, 4-[4-(2-aminopyrimidin-5-yl)phenyl]-N-[3-(benzyloxy)phenyl]tetrahydro-2H-pyran-4-carboxamide]
33.5 nM	> 3000 nM	Cc1ccc(NC(=O)C2(c3ccc(-c4cnc(N)nc4)cc3)CCOCC2)cc1C#N [Example 62, 4-[4-(2-aminopyrimidin-5-yl)phenyl]-N-(3-cyano-4-methylphenyl)tetrahydro-2H-pyran-4-carboxamide]
30.5 nM	812 nM	Nc1ncc(-c2ccc(C3(C(=O)Nc4ccc(Oc5ccc(Cl)cc5)cc4)CCOCC3)cc2)cn1 [Example 63, 4-[4-(2-aminopyrimidin-5-yl)phenyl]-N-[4-(4-chlorophenoxy)phenyl]tetrahydro-2H-pyran-4-carboxamide]
48 nM	850 nM	Nc1ncc(-c2ccc(C3(C(=O)Nc4ccc(S(=O)(=O)N5CCOCC5)cc4)CCOCC3)cc2)cn1 [Example 64, 4-[4-(2-aminopyrimidin-5-yl)phenyl]-N-[4-(morpholin-4-ylsulfonyl)phenyl]tetrahydro-2H-pyran-4-carboxamide]
14 nM	905 nM	Nc1ncc(-c2ccc(C3(C(=O)Nc4cnc(-c5ccccc5)nc4)CCOCC3)cc2)cn1 [Example 65, 4-[4-(2-aminopyrimidin-5-yl)phenyl]-N-(2-phenylpyrimidin-5-yl)tetrahydro-2H-pyran-4-carboxamide]
11.9 nM	1780 nM	Nc1ncc(-c2ccc(C3(C(=O)Nc4ccc(Cl)c(F)c4)CCOCC3)cc2)cn1 [Example 66, 4-[4-(2-aminopyrimidin-5-yl)phenyl]-N-(4-chloro-3-fluorophenyl)tetrahydro-2H-pyran-4-carboxamide]
14.5 nM	1210 nM	Nc1ncc(-c2ccc(C3(C(=O)Nc4ccc(-c5ccccc5)nc4)CCOCC3)cc2)cn1 [Example 67, 4-[4-(2-aminopyrimidin-5-yl)phenyl]-N-(6-phenylpyridin-3-yl)tetrahydro-2H-pyran-4-carboxamide]
68.5 nM	1210 nM	CC(C)n1ncc2cc(NC(=O)C3(c4ccc(-c5cnc(N)nc5)cc4)CCOCC3)cnc21 [Example 68, 4-[4-(2-aminopyrimidin-5-yl)phenyl]-N-[1-(propan-2-yl)-1H-pyrazolo[3,4-b]pyridin-5-yl)tetrahydro-2H-pyran-4-carboxamide]
42 nM	> 3000 nM	Cc1nc(-c2cccc(NC(=O)C3(c4ccc(-c5cnc(N)nc5)cc4)CCOCC3)c2)cs1 [Example 70, 4-[4-(2-aminopyrimidin-5-yl)phenyl]-N-[3-(2-methyl-1,3-thiazol-4-yl)phenyl]tetrahydro-2H-pyran-4-carboxamide]
190 nM	> 3000 nM	Nc1ncc(-c2ccc(C3(C(=O)Nc4ccc5c(c4)C(=O)OC5)CCOCC3)cc2)cn1 [Example 71, 4-[4-(2-aminopyrimidin-5-yl)phenyl]-N-(3-oxo-1,3-dihydro-2-benzofuran-5-yl)tetrahydro-2H-pyran-4-carboxamide]
28.3 nM	244 nM	Nc1ncc(-c2ccc(C3(C(=O)Nc4ccc(N5CCOCC5)c(Cl)c4)CCOCC3)cc2)cn1 [Example 72, 4-[4-(2-aminopyrimidin-5-yl)phenyl]-N-[3-chloro-4-(mopholin-4-yl)phenyl]tetrahydro-2H-pyran-4-carboxamide]
53.5 nM	1500 nM	COC(=O)c1sc(-c2ccc(Cl)cc2)cc1NC(=O)C1(c2ccc(-c3cnc(N)nc3)cc2)CCOCC1 [Example 73, methyl 3-[({4-[4-(2-aminopyrimidin-5-yl)phenyl]tetrahydro-2H-pyran-4-yl}carbonyl)amino]-5-(4-chlorophenyl)thiophene-2-carboxylate]
97 nM	> 3000 nM	CC(C)(C)c1cccc(NC(=O)C2(c3ccc(-c4cnc(N)nc4)cc3)CCOCC2)c1 [Example 74, 4-[4-(2-aminopyrimidin-5-yl)phenyl]-N-(3-tert-butylphenyl)tetrahydro-2H-pyran-4-carboxamide]
68 nM	> 3000 nM	Cc1nc2cc(NC(=O)C3(c4ccc(-c5cnc(N)nc5)cc4)CCOCC3)ccc2s1 [Example 75, 4-[4-(2-aminopyrimidin-5-yl)phenyl]-N-(2-methyl-1,3-benzothiazol-5-yl)tetrahydro-2H-pyran-4-carboxamide]
52.5 nM	> 3000 nM	COc1ccc(Oc2ccccc2)cc1NC(=O)C1(c2ccc(-c3cnc(N)nc3)cc2)CCOCC1 [Example 76, 4-[4-(2-aminopyrimidin-5-yl)phenyl]-N-(2-methoxy-5-phenoxyphenyl)tetrahydro-2H-pyran-4-carboxamide]
113 nM	> 3000 nM	CCN(CC)S(=O)(=O)c1cccc(NC(=O)C2(c3ccc(-c4cnc(N)nc4)cc3)CCOCC2)c1 [Example 78, 4-[4-(2-aminopyrimidin-5-yl)phenyl]-N-[3-(diethylsulfamoyl)phenyl] tetrahydro-2H-pyran-4-carboxamide]
53.5 nM	> 3000 nM	N#Cc1ccnc(NC(=O)C2(c3ccc(-c4cnc(N)nc4)cc3)CCOCC2)c1 [Example 79, 4-[4-(2-aminopyrimidin-5-yl)phenyl]-N-(4-cyanopyridin-2-yl)tetrahydro-2H-pyran-4-carboxamide]
60 nM	> 3000 nM	COC(=O)c1cccc(NC(=O)C2(c3ccc(-c4cnc(N)nc4)cc3)CCOCC2)c1 [Example 80, methyl 3-[({4-[4-(2-aminopyrimidin-5-yl)phenyl]tetrahydro-2H-pyran-4-yl}carbonyl)amino]benzoate]
54 nM	> 3000 nM	Nc1ncc(-c2ccc(C3(C(=O)Nc4cc(C(F)(F)F)ccc4N4CCOCC4)CCOCC3)cc2)cn1 [Example 81, 4-[4-(2-aminopyrimidin-5-yl)phenyl]-N-[2-(morpholin-4-yl)-5-(trifluoromethyl)phenyl] tetrahydro-2H-pyran-4-carboxamide]
10.5 nM	2780 nM	Nc1ncc(-c2ccc(C3(C(=O)Nc4cc5ccccc5cn4)CCOCC3)cc2)cn1 [Example 82, 4-[4-(2-aminopyrimidin-5-yl)phenyl]-N-(isoquinolin-3-yl)tetrahydro-2H-pyran-4-carboxamide]
